Here are results for two molecules from article PMC6199251, “Oncolysis with DTT-205 and DTT-304 generates immunological memory in cured animals” (Cell Death & Disease, 2018).

For series [1], the system named is caspase-3. The experiment in a line: Caspase-3 activation (immunostaining of cleaved caspase-3). In kind it is cell-based, human. The settings on record: U2OS, 0.65 to 10 µM DTT peptides; staurosporine as positive control. The procedure:
Fig. 3 Cell death induced by DTT-205 and DTT-304. Human osteosarcoma U2OS cells were treated with 0.65 to 10 µM DTT peptides for the indicated time and following assessed for the activation of caspase-3 (CASP3). The pan-kinase inhibitor staurosporine (STS) was used as positive control. Representative images (a, b) and quantifications of CASP3 activation (c, d) are depicted while pyknosis was assessed by measuring the decrease in Hoechst 33342-stained nuclear area (e, f) by conventional microscopy (size bar equals 10 µm; mean ± SD of triplicate assessments, Student’s t test, […], **p < 0.01, ***p < 0.001). In order to assess the cell death modality, U2OS cells were pretreated with the ferroptosis inhibitor ferrostatin-1 (FER-1), the pan-caspase inhibitor zVAD-fmk (zVAD) or the antioxidants N-actylcystein (NAC) and reduced glutathione (GSH) before the addition of 2.5 µM of DTT peptides (g, h). […] Mouse embryonic fibroblasts (MEFs) that were either wild type, single- or double knockout for the proapoptotic proteins Bax and/or Bak were treated with 0.65 to 10 µM of DTT-205 or DTT-304 and viability was assessed by means of an exclusion dye in epifluorescence microscopy (k, l; mean ± SD of triplicate assessments. Student’s t test, […], **p < 0.01, ***p < 0.001). […]

Series [2] deals with U2OS cells. The experiment in a line: Lipid droplet formation (electron microscopy, Nile Red staining). In kind it is cell-based, human. The settings on record: 0.65 to 10 µM, 6 h, epifluorescence microscopy. The method, then:
Fig. 1 DTT peptides induce the formation of lipid droplets. Human osteosarcoma U2OS cells were treated with 2.5 µM of either DTT-205 or DTT-304 for 6 h. Cells were fixed and subjected to electron microscopy. The overview micrographs in the upper panel depict necrotic morphologies (N) of some of the treated cells and the high magnification micrographs in the lower panel show the formation of lipid droplets (L) in intact cells. Size bars equals 10 µm (upper panel) and 1 µm (lower panel). Representative images (a) and quantifications (b, c) are depicted (mean ± SD of a minimum of five view fields). The formation of lipid droplets in response to increasing doses from 0.65 to 10 µM DTT peptides was quantified by means of the lipophilic dye Nile Red at 6 h and 24 h post treatment in epifluorescence microscopy. Representative images (d) and quantifications (e, f) are shown (mean ± SD of triplicate assessments, Student’s t test, […], **p < 0.01). Temperature dependency of the lipid droplet formation was assessed by keeping the cell cultures upon treatment with 0.65 to 10 µM DTT-205 (g) and DTT-304 (h) at the indicated temperature for 6 h before Nile Red staining. […]
Figure S2. […] The formation of lipid droplets in response to increasing doses from 0.65 to 10 µM DTT-peptides was quantified by means of the lipophilic dye Nile Red in epifluorescence microscopy. […]

The conditions of series [3]: cited from earlier work. The text has this: When added to human cancer cells, DTT-205 or DTT-304 stimulated a necrosis-like disruption of cellular morphology. […] Staining with the red fluorescent lipophilic dye Nile red confirmed the formation of lipid droplets in the cytoplasm of cells treated with DTT-205 or DTT-304 that occurred in a time and dose-dependent fas ...

Consider `CN[C@@H]1C[C@H]2O[C@@](C)([C@@H]1OC)n1c3ccccc3c3c4c(c5c6ccccc6n2c5c31)C(=O)NC4` [staurosporine], for which the “caspase-3 activation (fraction of cells positive for mature caspase-3 fragment)” value in series [1] is given as “a significant fraction of cells”.

For LTX-315, in series [2], the “formation of lipid droplets” value is reported as “but not the LTX compounds, induced lipid droplets”. The “cytotoxic potential in the presence of serum” value in series [3] is given as “lost their cytotoxic potential in the presence of serum”.
